Assay results published in ChEMBL document CHEMBL1909046, “DrugMatrix in vitro pharmacology data”.
*1 amine or outer side, *2 acyl side, *3 side chain or, on linkers, in order; H or OH if unused. Where a SMILES comes first, the peptide text is derived from it. Bridges are numbered along the chain shown (N, C = ends). Roman numbers before positions name the chains, in order. [ ]: non-standard residue; d: D form. Actinocin(1to9) = Cc1c2oc3c(C)ccc(C(=O)[*:2])c3nc-2c(C(=O)[*:1])c(N)c1=O; NMeV = CN[C@H](C(=O)O)C(C)C; Sar = CNCC(=O)O

Legend:
[1] = target: Mitogen-activated protein kinase 14 (Homo sapiens, UniProt Q16539); set-up: species or system Escherichia coli;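 note: inhibition of p38alpha enzyme activity in a biochemical kinase assay, with myelin basic protein serving as substrate; in other assays of this panel Not Active means under 50% inhibition at 10 µM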
[2] = target: T1, Type-2 angiotensin II receptor (Homo sapiens, UniProt P50052); format: cell-based; conditions: cho-k1; note: in other assays of this panel Not Active means under 50% inhibition at 10 µM
T1 sequence (P50052 whole entry): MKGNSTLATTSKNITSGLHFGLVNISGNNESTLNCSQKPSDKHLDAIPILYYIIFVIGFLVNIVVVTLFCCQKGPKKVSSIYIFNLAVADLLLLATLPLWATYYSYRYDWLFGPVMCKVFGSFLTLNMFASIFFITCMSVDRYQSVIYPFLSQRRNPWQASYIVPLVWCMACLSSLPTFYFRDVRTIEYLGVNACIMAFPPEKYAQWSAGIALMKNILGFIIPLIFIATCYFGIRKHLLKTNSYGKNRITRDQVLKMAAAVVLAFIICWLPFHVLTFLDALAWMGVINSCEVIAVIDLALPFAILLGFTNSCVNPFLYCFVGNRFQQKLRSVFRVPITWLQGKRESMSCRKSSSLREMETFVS

Melanocortin receptor 4 = Melanocortin receptor 4 (Homo sapiens, UniProt P32245); format: cell membranes, HEK293, Membrane; conditions: hek293; note: in other assays of this panel Not Active means under 50% inhibition at 10 µM
[3] = target: T2, C-X-C chemokine receptor type 2 (Homo sapiens, UniProt P25025); format: cell membranes, Membrane; conditions: cho-k1; note: in other assays of this panel Not Active means under 50% inhibition at 10 µM
T2 sequence (P25025 whole entry): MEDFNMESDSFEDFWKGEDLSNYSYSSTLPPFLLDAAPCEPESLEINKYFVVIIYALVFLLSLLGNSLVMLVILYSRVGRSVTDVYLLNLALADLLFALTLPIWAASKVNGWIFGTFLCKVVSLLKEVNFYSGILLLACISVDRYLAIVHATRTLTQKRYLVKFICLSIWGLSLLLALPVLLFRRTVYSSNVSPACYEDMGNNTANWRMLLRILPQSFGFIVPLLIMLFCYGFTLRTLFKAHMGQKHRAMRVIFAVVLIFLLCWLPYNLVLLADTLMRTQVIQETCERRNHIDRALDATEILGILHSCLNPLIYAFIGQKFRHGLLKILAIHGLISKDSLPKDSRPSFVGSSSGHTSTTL

[4] = target: Kappa-type opioid receptor (Homo sapiens, UniProt P41145); assay: DRUGMATRIX: Opiate kappa (OP2, KOP) radioligand binding (ligand: [3H] Diprenorphine); format: cell membranes, HEK293, Membrane; conditions: hek293; Not Active = under 50% inhibition at 10 µM
[5] = target: T3, Angiotensin-converting enzyme (Oryctolagus cuniculus, UniProt P12822); format: tissue-based, Lung
T3 sequence (P12822 whole entry): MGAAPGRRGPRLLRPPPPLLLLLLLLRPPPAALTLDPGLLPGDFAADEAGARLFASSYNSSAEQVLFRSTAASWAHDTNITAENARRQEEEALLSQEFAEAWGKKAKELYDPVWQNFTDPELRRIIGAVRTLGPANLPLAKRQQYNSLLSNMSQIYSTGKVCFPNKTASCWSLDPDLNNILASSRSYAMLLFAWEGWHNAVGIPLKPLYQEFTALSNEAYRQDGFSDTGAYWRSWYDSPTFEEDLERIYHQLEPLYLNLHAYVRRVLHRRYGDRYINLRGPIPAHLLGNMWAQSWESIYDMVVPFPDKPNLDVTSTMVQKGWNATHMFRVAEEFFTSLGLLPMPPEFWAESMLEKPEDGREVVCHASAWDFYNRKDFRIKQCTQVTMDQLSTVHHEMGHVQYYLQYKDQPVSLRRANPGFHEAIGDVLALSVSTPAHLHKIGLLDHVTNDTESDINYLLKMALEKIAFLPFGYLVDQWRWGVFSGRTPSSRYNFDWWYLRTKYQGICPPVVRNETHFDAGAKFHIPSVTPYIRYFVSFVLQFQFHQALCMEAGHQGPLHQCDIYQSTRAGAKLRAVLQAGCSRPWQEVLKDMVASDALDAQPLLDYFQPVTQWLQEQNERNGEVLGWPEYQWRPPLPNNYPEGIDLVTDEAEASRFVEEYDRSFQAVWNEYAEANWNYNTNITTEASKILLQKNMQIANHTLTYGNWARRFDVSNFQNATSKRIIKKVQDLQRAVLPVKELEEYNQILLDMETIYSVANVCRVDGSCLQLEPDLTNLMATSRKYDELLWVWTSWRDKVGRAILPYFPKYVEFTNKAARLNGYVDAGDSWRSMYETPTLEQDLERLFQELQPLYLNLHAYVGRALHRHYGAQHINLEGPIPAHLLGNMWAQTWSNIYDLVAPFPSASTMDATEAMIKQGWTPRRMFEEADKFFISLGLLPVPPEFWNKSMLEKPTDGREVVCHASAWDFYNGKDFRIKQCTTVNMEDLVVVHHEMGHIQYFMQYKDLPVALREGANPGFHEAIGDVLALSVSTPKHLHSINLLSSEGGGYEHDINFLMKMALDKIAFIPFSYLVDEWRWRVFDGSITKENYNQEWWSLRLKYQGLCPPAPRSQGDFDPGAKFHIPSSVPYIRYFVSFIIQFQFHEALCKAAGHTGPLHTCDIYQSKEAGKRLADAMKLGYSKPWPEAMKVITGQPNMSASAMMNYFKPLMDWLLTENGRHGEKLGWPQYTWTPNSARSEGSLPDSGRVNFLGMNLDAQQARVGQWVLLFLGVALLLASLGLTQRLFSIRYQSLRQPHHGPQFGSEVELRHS

Estrogen receptor = target: T4, Estrogen receptor (Homo sapiens, UniProt P03372); conditions: sf9; note: in other assays of this panel Not Active means under 50% inhibition at 10 µM
T4 sequence (P03372 whole entry): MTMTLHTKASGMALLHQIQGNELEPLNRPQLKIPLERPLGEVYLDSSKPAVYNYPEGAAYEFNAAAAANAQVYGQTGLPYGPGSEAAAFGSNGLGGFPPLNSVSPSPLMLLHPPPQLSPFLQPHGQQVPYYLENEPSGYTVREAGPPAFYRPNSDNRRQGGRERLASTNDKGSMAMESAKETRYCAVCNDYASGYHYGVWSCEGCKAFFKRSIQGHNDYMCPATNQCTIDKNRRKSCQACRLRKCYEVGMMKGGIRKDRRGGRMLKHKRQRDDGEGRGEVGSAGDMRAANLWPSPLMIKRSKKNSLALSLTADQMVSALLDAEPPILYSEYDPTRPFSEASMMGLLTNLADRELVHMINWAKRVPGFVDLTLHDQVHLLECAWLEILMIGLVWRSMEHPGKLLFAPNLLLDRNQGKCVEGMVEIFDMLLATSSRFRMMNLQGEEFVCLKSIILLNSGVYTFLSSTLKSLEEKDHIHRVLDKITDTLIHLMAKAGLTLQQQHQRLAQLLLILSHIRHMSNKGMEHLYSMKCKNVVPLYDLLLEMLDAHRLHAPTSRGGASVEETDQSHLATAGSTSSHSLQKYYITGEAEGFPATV

D(1A) dopamine receptor = D(1A) dopamine receptor (Homo sapiens, UniProt P21728); assay: DRUGMATRIX: Dopamine D1 radioligand binding (ligand: [3H] SCH-23390); format: cell membranes, CHO, Membrane; conditions: Not Active = under 50% inhibition at 10 µM
Sequence of D(1A) dopamine receptor (P21728 whole entry): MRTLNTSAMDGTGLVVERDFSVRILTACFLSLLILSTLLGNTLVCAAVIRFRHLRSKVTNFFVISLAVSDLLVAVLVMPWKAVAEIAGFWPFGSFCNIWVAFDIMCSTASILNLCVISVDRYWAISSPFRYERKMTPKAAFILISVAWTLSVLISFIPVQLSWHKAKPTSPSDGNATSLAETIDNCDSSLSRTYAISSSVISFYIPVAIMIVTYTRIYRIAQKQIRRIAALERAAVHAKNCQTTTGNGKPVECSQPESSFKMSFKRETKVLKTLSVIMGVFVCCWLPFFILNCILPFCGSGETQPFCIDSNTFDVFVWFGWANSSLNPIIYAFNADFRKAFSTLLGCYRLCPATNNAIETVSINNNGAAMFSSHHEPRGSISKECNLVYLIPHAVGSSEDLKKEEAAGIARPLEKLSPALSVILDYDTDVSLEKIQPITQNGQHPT

Sequence of Mitogen-activated protein kinase 14 (Q16539 whole entry): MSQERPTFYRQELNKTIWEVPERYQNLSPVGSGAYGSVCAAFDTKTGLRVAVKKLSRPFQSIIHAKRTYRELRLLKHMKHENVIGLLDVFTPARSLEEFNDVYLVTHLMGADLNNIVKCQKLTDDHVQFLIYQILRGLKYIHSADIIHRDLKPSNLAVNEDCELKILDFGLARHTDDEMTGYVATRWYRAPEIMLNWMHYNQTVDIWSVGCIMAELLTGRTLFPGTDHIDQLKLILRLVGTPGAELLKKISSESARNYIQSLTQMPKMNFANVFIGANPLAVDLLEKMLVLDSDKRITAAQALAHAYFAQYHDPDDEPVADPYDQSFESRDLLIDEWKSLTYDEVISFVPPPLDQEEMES
Sequence of Kappa-type opioid receptor (P41145 whole entry): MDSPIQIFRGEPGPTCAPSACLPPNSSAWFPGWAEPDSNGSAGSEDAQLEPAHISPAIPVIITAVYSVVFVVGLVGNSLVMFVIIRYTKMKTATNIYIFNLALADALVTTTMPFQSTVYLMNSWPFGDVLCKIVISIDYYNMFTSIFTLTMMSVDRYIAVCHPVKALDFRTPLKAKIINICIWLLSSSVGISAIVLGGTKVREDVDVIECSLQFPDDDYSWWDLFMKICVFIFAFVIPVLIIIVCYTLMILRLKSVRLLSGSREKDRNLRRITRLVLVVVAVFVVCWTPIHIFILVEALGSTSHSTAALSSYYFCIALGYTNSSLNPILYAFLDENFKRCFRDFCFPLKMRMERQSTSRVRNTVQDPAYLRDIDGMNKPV
Sequence of Melanocortin receptor 4 (P32245 whole entry): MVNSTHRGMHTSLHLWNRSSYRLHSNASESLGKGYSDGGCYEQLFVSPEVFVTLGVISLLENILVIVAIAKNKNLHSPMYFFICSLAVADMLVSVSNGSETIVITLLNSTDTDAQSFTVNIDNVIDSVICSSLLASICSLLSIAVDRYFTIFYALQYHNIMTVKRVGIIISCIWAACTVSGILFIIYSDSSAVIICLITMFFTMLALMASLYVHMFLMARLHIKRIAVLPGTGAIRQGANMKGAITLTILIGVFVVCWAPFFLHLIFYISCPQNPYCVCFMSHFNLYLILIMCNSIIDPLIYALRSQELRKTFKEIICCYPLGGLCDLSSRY

Nc1c(Br)cc(Br)cc1CN[C@H]1CC[C@H](O)CC1 [AMBROXOL]
Not Active: IC50 [1] | IC50 [2] | IC50 (Melanocortin receptor 4) | IC50 [3] | IC50 [4] | IC50 [5] | IC50 (Estrogen receptor) | IC50 (D(1A) dopamine receptor; cho)

NCCCCCC(=O)O [AMINOCAPROIC ACID]
Not Active: IC50 [1] | IC50 [2] | IC50 (Melanocortin receptor 4) | IC50 [3] | IC50 [4] | IC50 [5] | IC50 (Estrogen receptor) | IC50 (D(1A) dopamine receptor; cho)

CCC1(c2ccc(N)cc2)CCC(=O)NC1=O (configuration not stated) [AMINOGLUTETHIMIDE]
Not Active: IC50 [1] | IC50 [2] | IC50 (Melanocortin receptor 4) | IC50 [3] | IC50 [4] | IC50 [5] | IC50 (Estrogen receptor) | IC50 (D(1A) dopamine receptor; cho)

CCOC(=O)C1=C(COCCN)NC(C)=C(C(=O)OC)C1c1ccccc1Cl (configuration not stated) [AMLODIPINE]
Not Active: IC50 [1] | IC50 [2] | IC50 (Melanocortin receptor 4) | IC50 [3] | IC50 [4] | IC50 [5] | IC50 (Estrogen receptor) | IC50 (D(1A) dopamine receptor; cho)

Nc1ncn([C@@H]2O[C@H](CO)[C@@H](O)[C@H]2O)c(=O)n1 [AZACITIDINE]
Not Active: IC50 [1] | IC50 [2] | IC50 (Melanocortin receptor 4) | IC50 [3] | IC50 [4] | IC50 [5] | IC50 (Estrogen receptor) | IC50 (D(1A) dopamine receptor; cho)

CN(C)C(=O)Oc1cc(OC(=O)N(C)C)cc(C(O)CNC(C)(C)C)c1 (configuration not stated) [BAMBUTEROL]
Not Active: IC50 [1] | IC50 [2] | IC50 (Melanocortin receptor 4) | IC50 [3] | IC50 [4] | IC50 [5] | IC50 (Estrogen receptor) | IC50 (D(1A) dopamine receptor; cho)

c1ccc2c(c1)c1cccc3ccc4cccc2c4c31 [BENZO[E]PYRENE]
Not Active: IC50 [1] | IC50 [2] | IC50 (Melanocortin receptor 4) | IC50 [3] | IC50 [4] | IC50 [5] | IC50 (Estrogen receptor) | IC50 (D(1A) dopamine receptor; cho)

CC(C)C(Br)C(=O)NC(N)=O (configuration not stated) [BROMISOVALUM]
Not Active: IC50 [1] | IC50 [2] | IC50 (Melanocortin receptor 4) | IC50 [3] | IC50 [4] | IC50 [5] | IC50 (Estrogen receptor) | IC50 (D(1A) dopamine receptor; cho)

CN(Cc1ccc(C(C)(C)C)cc1)Cc1cccc2ccccc12 [BUTENAFINE]
Not Active: IC50 [1] | IC50 [2] | IC50 (Melanocortin receptor 4) | IC50 [3] | IC50 [4] | IC50 [5] | IC50 (Estrogen receptor) | IC50 (D(1A) dopamine receptor; cho)

Cc1ccc(-c2cc(C(F)(F)F)nn2-c2ccc(S(N)(=O)=O)cc2)cc1 [CELECOXIB]
14 µM: Ki (D(1A) dopamine receptor; read-out: Ki)
Not Active: IC50 [1] | IC50 [2] | IC50 (Melanocortin receptor 4) | IC50 [3] | IC50 [4] | IC50 [5] | IC50 (Estrogen receptor)
28 µM: IC50 (D(1A) dopamine receptor; read-out: IC50)

C[C@H](CCC(=O)O)[C@H]1CC[C@H]2[C@@H]3[C@H](O)C[C@@H]4C[C@H](O)CC[C@]4(C)[C@H]3C[C@H](O)[C@]12C [CHOLIC ACID]
Not Active: IC50 [1] | IC50 [2] | IC50 (Melanocortin receptor 4) | IC50 [3] | IC50 [4] | IC50 [5] | IC50 (Estrogen receptor) | IC50 (D(1A) dopamine receptor; cho)

Cc1cc(C2CCCCC2)n(O)c(=O)c1 [CICLOPIROX]
Not Active: IC50 [1] | IC50 [2] | IC50 (Melanocortin receptor 4) | IC50 [3] | IC50 [4] | IC50 [5] | IC50 (Estrogen receptor) | IC50 (D(1A) dopamine receptor; cho)

Cc1cc(C(C#N)c2ccc(Cl)cc2)c(Cl)cc1NC(=O)c1cc(I)cc(I)c1O (configuration not stated) [CLOSANTEL]
Not Active: IC50 [2] | IC50 (Melanocortin receptor 4) | IC50 [3] | IC50 [4] | IC50 [5] | IC50 (Estrogen receptor) | IC50 (D(1A) dopamine receptor; cho)
0.656 µM: IC50 ([1]; read-out: IC50)

Cc1onc(-c2ccccc2Cl)c1C(=O)N[C@@H]1C(=O)N2[C@@H]1SC(C)(C)[C@@H]2C(=O)O [CLOXACILLIN]
Not Active: IC50 [1] | IC50 [2] | IC50 (Melanocortin receptor 4) | IC50 [3] | IC50 [4] | IC50 [5] | IC50 (Estrogen receptor) | IC50 (D(1A) dopamine receptor; cho)

CC1CC(OC(=O)C(O)c2ccccc2)CC(C)(C)C1 (configuration not stated) [CYCLANDELATE]
Not Active: IC50 [1] | IC50 [2] | IC50 (Melanocortin receptor 4) | IC50 [3] | IC50 [4] | IC50 [5] | IC50 (Estrogen receptor) | IC50 (D(1A) dopamine receptor; cho)

Cc1c2oc3c(C)ccc(C(=O)N[C@@H]4C(=O)N[C@H](C(C)C)C(=O)N5CCC[C@H]5C(=O)N(C)CC(=O)N(C)[C@@H](C(C)C)C(=O)O[C@@H]4C)c3nc-2c(C(=O)N[C@@H]2C(=O)N[C@H](C(C)C)C(=O)N3CCC[C@H]3C(=O)N(C)CC(=O)N(C)[C@@H](C(C)C)C(=O)O[C@@H]2C)c(N)c1=O [DACTINOMYCIN] (I: T[dV]P[Sar][NMeV] / II: T[dV]P[Sar][NMeV]; ester I:1-I:C, II:1-II:C; linker I:N-II:N via Actinocin(1to9))
Not Active: IC50 [1] | IC50 [2] | IC50 (Melanocortin receptor 4) | IC50 [3] | IC50 [4] | IC50 [5] | IC50 (Estrogen receptor) | IC50 (D(1A) dopamine receptor; cho)

Cc1c(O)c(=O)ccn1C [DEFERIPRONE]
Not Active: IC50 [1] | IC50 [2] | IC50 (Melanocortin receptor 4) | IC50 [3] | IC50 [4] | IC50 [5] | IC50 (Estrogen receptor) | IC50 (D(1A) dopamine receptor; cho)
